Read-outs that look alike come from different tables or passages of the source.
Tests used:
HT-1080 = test: Ferroptosis inhibition, cell viability assay (CellTiter-Glo); type: cell-based, Human; conditions: for IC50: Homo sapiens; for cellular efficacy/toxicity window: cytotoxic IC50 versus ferroptosis inhibition IC50, 1080 min
Method: Cell lines: Human fibrosarcoma cell line HT-1080 and immortalized Mouse Embryonic Fibroblasts (MEF). MEFs were a gift from Daniel Krappmann, HT-1080 were purchased from ATCC and both cell lines were grown in Dulbecco's Modified Eagle's medium (Thermo Fisher Scientific, 41966-029) supplemented with 10% fetal bovine serum (FBS, Thermo Fisher Scientific), 1% Penicillin-Streptomycin (Thermo Fisher Scientific) and 1% nonessential amino acids (MEM NEAA, Thermo Fisher Scientific). Cells were grown at 37° C. and 5% CO2.
HT-1080 were seeded into 384-well plates (CulturPlates, PerkinElmer) with a density of 750 cells per well. After 24 h of growth, cells were treated with 10 or 12-point serial dilutions of compounds in indicated concentrations for 18 h. Viability was detected by using CellTiter-Glo® 2.0 Regent (Promega) according to the manufacturer's instruction and luminescence was read out in an EnVison 2104 Multilabel plate reader (PerkinElmer).

[1] = Cytotoxicity, cell viability assay; type: cell-based, Human; conditions: human, ht-1080 cells
Method: After 24 h of growth, cells were treated with 10 or 12-point serial dilutions of compounds in indicated concentrations for 18 h.

[2] = HT-1080, based on the assays of example 1, read-out: IC50 (Ferroptosis inhibition)
[3] = * = signal quenching at higher concentration, toxicity might be less than indicated, read-out: cytotoxic IC50
[4] = HT-1080, read-out: IC50 (Ferroptosis inhibition)

SMILES	IC50 (HT-1080; [2]) [nM]	CC50 at 18 h [1, 3] [nM]	IC50 (HT-1080; [4]) [nM]	cellular efficacy/toxicity window (HT-1080)	CC50 at 18 h [1] [nM]
O=C1C=C(Nc2ccccc2C(=O)O)C(=O)C=C1Nc1ccccc1C(=O)O [QFerr26, 2,2-(3,6-dioxo-1,4-cyclohexadiene-1,4-diyl-diimino)dibenzoic acid]	> 100000	35400			
CC(C)=CC[C@@H](O)C1=CC(=O)c2c(O)ccc(O)c2C1=O [iQFerr03, Shikonin]		269	> 1000		
CC(C)=CC[C@H](O)C1=CC(=O)c2c(O)ccc(O)c2C1=O [iQFerr04, Alkannin]		573	> 1000		
CC(C)=CCCC1=CC(=O)c2c(O)ccc(O)c2C1=O [iQFerr05, Deoxyshikonin]		1620	287	6-fold	
O=C(O)c1ccc2c(c1)C(=O)c1ccccc1C2=O [iQFerr08, Anthraquinone-2-carboxyclic acid]			13000		> 100000
O=C(O)CCCNC1=C(Cl)C(=O)c2ccccc2C1=O [iQFerr15, 4-[(3-chloro-1,4-dioxo-1,4-dihydronaphthalen-2-yl)amino]butanoic acid]	1360	215000		159-fold	
O=C(O)c1ccccc1NC1=CC(=O)c2c(O)cccc2C1=O [iQFerr23]	3480	16400		5-fold	
O=C1c2ccccc2C(=O)c2c1c(-c1ccccc1)nn2-c1ccccc1 [iQFerr24, 1,3-diphenyl-1H-benzo-f-indazole-4,9-dione]	> 100000				
CCOc1ccc(NC2=CC(=O)C=CC2=O)cc1 [iQFerr27, 2-(4-ethoxyanilino)-benzo-1,4-quinone]	493	2160		4-fold	
COc1ccc(CC2=CC(=O)c3ccccc3C2=O)cc1 [iQFerr31, 2-(4-methoxybenzyl)-1,4-naphtoquinone]	1060	8700		8-fold	
Cc1ccc(C(C2=C(O)C(=O)c3ccccc3C2=O)c2ccccc2)cc1 (stereo not shown) [iQFerr32, 2-hydroxy-3-[(4-methylphenyl)phenyl-methyl]-1,4-naphtoquinone]	39800	34200			
CN(C)c1ccc(C(C2=C(O)C(=O)c3ccccc3C2=O)c2ccccc2)cc1 (stereo not shown) [iQFerr33, 2-[(4-dimethylamino-phenyl)phenylmethyl]-3-hydroxy-1,4-naphtoquinone]	7580	71800		9-fold	
O=C1C(O)=C(C(c2ccccc2)c2ccc(F)cc2)C(=O)c2ccccc21 (stereo not shown) [iQFerr34, 2-[(4-fluorophenyl)-phenylmethyl]-3-hydroxy 1,4-naphtoquinone]		35000	71400		
Cc1ccc(N(CCCC(N)=O)C2=CC(=O)c3ccccc3C2=O)c(C)c1 [iQFerr40, 4-[(2,4-dimethylphenyl)(1,4-dioxo-1,4-dihydronaphthalen-2-yl)amino]butanamide]	189	230		1,2-fold	
Cc1ccc(N(CCCC(=O)O)C2=CC(=O)c3ccccc3C2=O)c(C)c1 [iQFerr42, 4-[(2,4-dimethylphenyl)(1,4-dioxo-1,4-dihydronaphthalen-2-yl)amino]butanoic acid]	463	219		0,47-fold	

Second part, led by results:

IC50 (HT-1080; [2]) [nM]	SMILES	CC50 at 18 h [1, 3] [nM]	IC50 (HT-1080; [4]) [nM]	cellular efficacy/toxicity window (HT-1080)	CC50 at 18 h [1] [nM]
30	COC1=C(OC)C(=O)C(CC=C(C)C)=C(C)C1=O [iQFerr07, Coenzyme Q1]	10000		333-fold	
63	CC(=O)c1cccc(NC2=C(Cl)C(=O)c3ccccc3C2=O)c1 [iQFerr09, 2-(3-acetylanilino)-3-chloro-1,4-naphtoquinone]	810		13-fold	
8	CCc1ccc(NC2=C(Cl)C(=O)c3ccccc3C2=O)cc1 [iQFerr10, 2-chloro-3-(4-ethylanilino)-1,4-naphtoquinone]	844		105-fold	
6	O=C1C(Cl)=C(Nc2ccc(O)cc2)C(=O)c2ccccc21 [iQFerr11, 2-chloro-3-(4-hydroxy-phenylamino)-1,4-naphtoquinone]	293		48-fold	
6	COc1ccc(NC2=C(Cl)C(=O)c3ccccc3C2=O)cc1 [iQFerr12, 2-chloro-3-(4-methoxyanilino)-1,4-naphtoquinone]	3520		586-fold	
3	Cc1ccc(NC2=C(Cl)C(=O)c3ccccc3C2=O)cc1 [iQFerr13, 2-chloro-3-(4-methylanilino)-1,4-naphtoquinone]	380		126-fold	
4.5	O=C1C(Cl)=C(Nc2ccccc2)C(=O)c2ccccc21 [iQFerr16, 2-anilino-3-chloro-1,4-naphtoquinone]	279		62-fold	
6.1	O=C1C(Cl)=C(Nc2ccc(F)cc2)C(=O)c2ccccc21 [iQFerr17, 2-chloro-3-(4-fluoroanilino)-1,4-naphtoquinone]	397		65-fold	
94.1	O=C(O)c1ccc(NC2=C(Cl)C(=O)c3ccccc3C2=O)cc1 [iQFerr18, 4-[(3-chloro-1,4-dioxo-1,4-dihydronaphthalen-2-yl)amino]benzoic acid]	2550		27-fold	
32.2	CN(C)c1ccc(NC2=CC(=O)c3ccccc3C2=O)cc1 [iQFerr19, 2-[4-(dimethylamino)-anilino]-1,4-naphtoquinone]	5850		182-fold	
43	CCOc1ccc(NC2=CC(=O)c3ccccc3C2=O)cc1 [iQFerr21, 2-(4-ethoxyanilino)-1,4-naphtoquinone]	8570		199-fold	
15.6	Cc1ccc(NC2=CC(=O)c3ccccc3C2=O)cc1 [iQFerr22, 2-(4-methylanilino)-1,4-naphtoquinone]	5500		354-fold	
176	Cc1ccc(NC2=CC(=O)C=CC2=O)c(C)c1 [iQFerr25, 2-(2,4-dimethylanilino)-benzo-1,4-quinone]	759		5-fold	
32.4	O=C1C=C(Cc2ccc(F)cc2)C(=O)c2ccccc21 [iQFerr28, 2-(4-fluorobenzyl)-1,4-naphtoquinone]	1450		45-fold	
38.4	Cc1ccc(CC2=CC(=O)c3ccccc3C2=O)cc1 [iQFerr30, 2-(4-methylbenzyl)-1,4-naphtoquinone]	5060		132-fold	
7.36	CC(=O)Nc1ccc(NC2=C(Cl)C(=O)c3ccccc3C2=O)cc1 [iQFerr36, N-{4-[(3-chloro-1,4-dioxo-1,4-dihydronaphthalen-2 yl)amino]phenyl} acetamide]	564		77-fold	
15.4	Cc1ccc(NC2=CC(=O)c3ccccc3C2=O)c(C)c1 [iQFerr37, 2-[(2,4-dimethylphenyl)amino]-1,4-dihydronaphthalene-1,4-dione]	48800		3162-fold	
1.56	CC1=C(Nc2ccc(C)cc2)C(=O)c2ccccc2C1=O [iQFerr45, 2-methyl-3-[(4-methylphenyl)amino]-1,4-dihydronaphthalene-1,4-dione]	40000		25634-fold	
22.8	CC(=O)Nc1ccc(N(CCCCCC(N)=O)C2=CC(=O)c3ccccc3C2=O)cc1 [iQFerr49, 6-[(1,4-dioxo-1,4-dihydronaphthalen-2-yl)(4-acetamidophenyl)amino] hexanamide]	112000		4895-fold	

From patent publication US20260283988A1, “FERROPTOSIS INHIBITORS” (priority 2023, published 2026)
